Laboratory results: patent US20260209777A1, “TARGETING GLYCOSYLPHOSPHATIDYLINOSITOL (GPI) PATHWAY PROTEINS TO TREAT OVARIAN CANCER” (UNIVERSITY OF MASSACHUSETTS, priority 2023, published 2026)

Legend:
Type in all cases: cell-based, human
[1] = test system: CD24 cell surface expression in MCF7 breast cancer cells; experiment: CD24 flow cytometry analysis in MCF7 cells; details: MCF7, 10 or 20 μM bestatin vs DMSO (FIG. 7D)
Protocol: (§1) Flow Cytometry Analysis: For cell surface protein staining, 1×10^5-1×10^6 cells were first incubated with Fc receptor blocking solution, Human TruStain FcX™ (BioLegend, Cat #422301) for 10 minutes at room temperature. Cells were washed once in FACS buffer (1×PBS, 1.0% bovine serum albumin (BSA) (Sigma) and 0.2% sodium azide (Sigma), and then incubated with antibodies (given below) for 30 minutes at 4° C. in the dark. Cells were also stained with 7-AAD (Biolegend, Cat #420404) for dead cell exclusion, and flow cytometry analysis was performed using a Bio-Rad ZE5 Cell Analyzer. Following antibodies used in this study (all antibodies were used at 1:50 dilution unless otherwise noted): APC anti-human CD24 (BioLegend, Cat #311118, clone ML5), PE anti-human CD24 (eBioscience, Cat #12-0247-42, clone SN3), APC anti-human CD47 (BioLegend, Cat #323124, clone CC2C6), APC anti-human § 2-microglobulin (BioLegend, Cat #395711, clone A17082A), PE anti-human HLA-A2 (MHC-class I) (BioLegend, Cat #343305, clone BB7.2), APC anti-human CD11b (BioLegend, Cat #982604, clone ICRF44), APC anti-mouse F4/80 antibody (BioLegend, Cat #123116, clone BM8), APC-streptavidin (Thermo Fisher Scientific, Cat #SA1005, 1:100 dilution), PE anti-Calreticulin (Invitrogen, Catalog #MA5-15382, 1:200 dilution). […]

SKOV3 cells = experiment: Cell viability assay (PrestoBlue) in SKOV3 cells; details: SKOV3, 5, 10 or 20 μM bestatin vs DMSO (FIG. 6F)
[2] = test system: CD24 cell surface expression in SKOV3 cells; experiment: CD24 flow cytometry analysis in SKOV3 cells; details: 3 days, bestatin 10 or 20 μM, tosedostat 5 or 10 μM, vs DMSO
Protocol: as §1, with “FcXTM” for “FcX™”, “[…]),” for “A17082A),”

SMILES	CD24 cell surface expression (MFI) [1]	cell viability (SKOV3 cells)	CD24 cell surface expression (MFI) [2]
CC(C)C[C@H](NC(=O)[C@@H](O)[C@H](N)Cc1ccccc1)C(=O)O [bestatin]	did not decrease	no effect	–
CC(C)C[C@@H](C(=O)N[C@H](C(=O)OC1CCCC1)c1ccccc1)[C@H](O)C(=O)NO [tosedostat]	–	–	reduced
